Patent publication US10703757B2, “Compounds and methods for CDK8 modulation and indications therefor” (Plexxikon Inc., priority 2016, dated 2020)

What was measured:
[1] = system: CDK8 (phosphorylation of STAT1 at serine 727 in A549 cells); experiment: Cell based Phospho-STAT1 assay (IFNγ-stimulated A549 cells, AlphaLISA); conditions: Homo sapiens, A549, A549 cells, phospho-STAT1 after IFNγ stimulation
Summary of the method: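 A549 cells given serial compound dilutions for 1 h at 37 °C, then stimulated with IFNγ at 10 ng/mL final for 30 min. Lysate STAT1 Ser727 phosphorylation measured by AlphaLISA; % inhibition vs stimulated/unstimulated DMSO controls, IC50 by nonlinear regression.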

[2] = system: CDK8 (TCF/LEF luciferase reporter in HCT116 cells); experiment: Cell based TCF/LEF reporter assay (HCT116+TCF/LEF luciferase); conditions: Homo sapiens, HCT-116, 24 h
Summary of the method: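 Luciferase readout was corrected for viability (CellTiter-Fluor) and scaled between DMSO high and 10 uM CCT251545 low controls, giving IC50 by nonlinear regression. Compounds, serially diluted, were incubated 24 h at 37 °C on HCT116 clones stably expressing a TCF/LEF-driven luciferase reporter.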

Row | IC50 [1] [nM] | IC50 [2] [nM] | Structure (SMILES)
1 | 0.1 to 100 | 0.1 to 100 | CC(C)(C#Cc1cccn2ncc(-c3ccc(-c4cnn(CCC#N)c4)cc3)c12)C(N)=O [Compound P-0005, 4-(3-(4-(1-(2-cyanoethyl)-1H-pyrazol-4-yl)phenyl)pyrazolo[1,5-a]pyridin-4-yl)-2,2-dimethylbut-3-ynamide]
2 | 0.1 to 100 | 0.1 to 100 | COc1ccc2cc(-c3cnc4[nH]ccc4c3N3CCC(C#N)CC3)ccc2n1 [Compound P-0221, 1-(5-(2-methoxyquinolin-6-yl)-1H-pyrrolo[2,3-b]pyridin-4-yl)piperidine-4-carbonitrile]
3 | 0.1 to 100 | 0.1 to 100 | N#CC1CC=C(c2nccn3ncc(-c4ccc(OCC(O)CN5CCOCC5)cc4)c23)CC1 (stereo not drawn) [Compound P-0078, 4-(3-(4-(2-hydroxy-3-morpholinopropoxy)phenyl)pyrazolo[1,5-a]pyrazin-4-yl)cyclohex-3-ene-1-carbonitrile]
4 | 100 to 1000 | 100 to 1000 | COc1ccc(-c2cnn3ccnc(C4=CCC(C(N)=O)CC4)c23)cn1 (stereo not drawn) [Compound P-0155, 4-(3-(6-methoxypyridin-3-yl)pyrazolo[1,5-a]pyrazin-4-yl)cyclohex-3-ene-1-carboxamide]
5 | 0.1 to 100 | 0.1 to 100 | N#CC1CC=C(c2nccn3ncc(-c4ccc(OCCOC5CCS(=O)(=O)CC5)cc4)c23)CC1 (stereo not drawn) [Compound P-0057, 4-(3-(4-(2-((1,1-dioxidotetrahydro-2H-thiopyran-4-yl)oxy)ethoxy)phenyl)pyrazolo[1,5-a]pyrazin-4-yl)cyclohex-3-ene-1-carbonitrile]
6 | 0.1 to 100 | 0.1 to 100 | COc1ccc(-c2cnn3ccnc(C4CCC(C#N)CC4)c23)cc1C (stereo not drawn) [Compound P-0457, (1s,4s)-4-(3-(4-methoxy-3-methylphenyl)pyrazolo[1,5-a]pyrazin-4-yl)cyclohexane-1-carbonitrile]
7 | 1000 to 10000 | 1000 to 10000 | FC(F)n1cc(-c2ccc(-c3cnc4cccc(OC5COC5)n34)cc2)cn1 [Compound P-0284, 3-(4-(1-(difluoromethyl)-1H-pyrazol-4-yl)phenyl)-5-(oxetan-3-yloxy)imidazo[1,2-a]pyridine]
8 | 1000 to 10000 | 1000 to 10000 | CC1=NC2(CCN(c3cccc4ncc(C#Cc5cnn(C)c5)n34)CC2)C(=O)N1 [Compound P-0276, 2-methyl-8-(3-((1-methyl-1H-pyrazol-4-yl)ethynyl)imidazo[1,2-a]pyridin-5-yl)-1,3,8-triazaspiro[4.5]dec-1-en-4-one]
9 | 100 to 1000 | 100 to 1000 | COc1ccc2cc(-c3cnn4ccnc(C#CC(C)(C)O)c34)ccc2n1 [Compound P-0198, 4-(3-(2-methoxyquinolin-6-yl)pyrazolo[1,5-a]pyrazin-4-yl)-2-methylbut-3-yn-2-ol]
10 | 0.1 to 100 | 0.1 to 100 | Cn1cc(-c2ccc(-c3cnn4ccnc(C5=CCC(C#N)CC5)c34)cc2)cn1 (stereo not drawn) [Compound P-0323, 4-(3-(4-(1-methyl-1H-pyrazol-4-yl)phenyl)pyrazolo[1,5-a]pyrazin-4-yl)cyclohex-3-ene-1-carbonitrile]
11 | 0.1 to 100 | 0.1 to 100 | Cn1cc(C#Cc2cnc3cccc(N4CCC5(CC4)C(=O)Nc4ccccc45)n23)cn1 [Compound P-0437, 1′-(3-((1-methyl-1H-pyrazol-4-yl)ethynyl)imidazo[1,2-a]pyridin-5-yl)spiro[indoline-3,4′-piperidin]-2-one]
12 | 100 to 1000 | 100 to 1000 | COc1ncc(C#Cc2cnc3cccc(N4CCC(C#N)CC4)n23)cn1 [Compound P-0313, 1-(3-((2-methoxypyrimidin-5-yl)ethynyl)imidazo[1,2-a]pyridin-5-yl)piperidine-4-carbonitrile]
13 | 0.1 to 100 | 0.1 to 100 | CC(C)(O)Cn1cc(-c2ccc(-c3cnn4ccnc(C5=CCC(C#N)CC5)c34)cc2)cn1 (stereo not drawn) [Compound P-0162, 4-(3-(4-(1-(2-hydroxy-2-methylpropyl)-1H-pyrazol-4-yl)phenyl)pyrazolo[1,5-a]pyrazin-4-yl)cyclohex-3-ene-1-carbonitrile]
14 | 0.1 to 100 | 0.1 to 100 | CS(=O)(=O)CCn1cc(-c2ccc(-c3cnn4ccnc(C5CCC(C#N)CC5)c34)cc2)cn1 (stereo not drawn) [Compound P-0015, (1s,4s)-(3-(4-(1-(2-(methylsulfonyl)ethyl)-1H-pyrazol-4-yl)phenyl)pyrazolo[1,5-a]pyrazin-4-yl)cyclohexane-1-carbonitrile]
15 | 100 to 1000 | 100 to 1000 | N#CC1CC=C(c2nccn3ncc(-c4ccc(Cl)c(F)c4)c23)CC1 (stereo not drawn) [Compound P-0083, 4-(3-(4-chloro-3-fluorophenyl)pyrazolo[1,5-a]pyrazin-4-yl)cyclohex-3-ene-1-carbonitrile]
16 | 0.1 to 100 | 0.1 to 100 | CC(C)(O)Cn1cc(-c2ccc(-c3cnc4[nH]ccc4c3C3=CCC(C#N)CC3)cc2F)cn1 (stereo not drawn) [Compound P-0132, 4-(5-(3-fluoro-4-(1-(2-hydroxy-2-methylpropyl)-1H-pyrazol-4-yl)phenyl)-1H-pyrrolo[2,3-b]pyridin-4-yl)cyclohex-3-ene-1-carbonitrile]
17 | 0.1 to 100 | 0.1 to 100 | CC(C)(C#Cc1cccn2ncc(-c3ccc(-c4cnn(CC(N)=O)c4)cc3)c12)C(N)=O [Compound P-0462, 4-(3-(4-(1-(2-amino-2-oxoethyl)-1H-pyrazol-4-yl)phenyl)pyrazolo[1,5-a]pyridin-4-yl)-2,2-dimethylbut-3-ynamide]
18 | 0.1 to 100 | 0.1 to 100 | CN1CCN(C(=O)c2ccc3cc(-c4cnc5[nH]ccc5c4N4CCC(C#N)CC4)ccc3c2)CC1 [Compound P-0328, 1-(5-(6-(4-methylpiperazine-1-carbonyl)naphthalen-2-yl)-1H-pyrrolo[2,3-b]pyridin-4-yl)piperidine-4-carbonitrile]
19 | 0.1 to 100 | 0.1 to 100 | CCCS(=O)(=O)Nc1ccc2cc(-c3cnn4ccnc(C5=CCC(C#N)CC5)c34)ccc2c1 (stereo not drawn) [Compound P-0060, N-(6-(4-(4-cyanocyclohex-1-en-1-yl)pyrazolo[1,5-a]pyrazin-3-yl)naphthalen-2-yl)propane-1-sulfonamide]
20 | 0.1 to 100 | 0.1 to 100 | CC(C)(C#Cc1cccn2ncc(-c3ccc(-c4cnn(CS(C)(=O)=O)c4)cc3)c12)C(N)=O [Compound P-0460, 2,2-dimethyl-4-(3-(4-(1-((methylsulfonyl)methyl)-1H-pyrazol-4-yl)phenyl)pyrazolo[1,5-a]pyridin-4-yl)but-3-ynamide]
21 | 0.1 to 100 | 0.1 to 100 | Cn1cc(-c2ccc(-c3cnn4ccnc(C#CC(C)(C)O)c34)cc2)cn1 [Compound P-0274, 2-methyl-4-(3-(4-(1-methyl-1H-pyrazol-4-yl)phenyl)pyrazolo[1,5-a]pyrazin-4-yl)but-3-yn-2-ol]
22 | 0.1 to 100 | 0.1 to 100 | CC(C)(C#N)Cn1cc(-c2ccc(-c3cnn4ccnc(C5=CCC(C#N)CC5)c34)cc2)cn1 (stereo not drawn) [Compound P-0048, 4-(3-(4-(1-(2-cyano-2-methylpropyl)-1H-pyrazol-4-yl)phenyl)pyrazolo[1,5-a]pyrazin-4-yl)cyclohex-3-ene-1-carbonitrile]
23 | 0.1 to 100 | 0.1 to 100 | CNC(=O)c1ccc2cc(-c3cnn4cccc(C5=CCC(C#N)CC5)c34)ccc2c1 (stereo not drawn) [Compound P-0330, 6-(4-(4-cyanocyclohex-1-en-1-yl)pyrazolo[1,5-a]pyridin-3-yl)-N-methyl-2-naphthamide]
24 | 0.1 to 100 | 0.1 to 100 | CC(C)(C#N)Cn1cc(-c2ccc(-c3cnn4ccnc(C5CCC(C#N)CC5)c34)cc2)cn1 (stereo not drawn) [Compound P-0046, (1s,4s)-4-(3-(4-(1-(2-cyano-2-methylpropyl)-1H-pyrazol-4-yl)phenyl)pyrazolo[1,5-a]pyrazin-4-yl)cyclohexane-1-carbonitrile]
25 | 0.1 to 100 | 0.1 to 100 | N#CC1CCC(c2nccn3ncc(-c4ccc(-c5cnn(CCN6CCCC6)c5)cc4)c23)CC1 (stereo not drawn) [Compound P-0017, (1s,4s)-4-(3-(4-(1-(2-(pyrrolidin-1-yl)ethyl)-1H-pyrazol-4-yl)phenyl)pyrazolo[1,5-a]pyrazin-4-yl)cyclohexane-1-carbonitrile]
26 | 0.1 to 100 | 0.1 to 100 | N#CC1CCC(c2cccn3ncc(-c4ccc(OCC(O)CN5CCCCC5)cc4)c23)CC1 (stereo not drawn) [Compound P-0143, 4-(3-(4-(2-hydroxy-3-(piperidin-1-yl)propoxy)phenyl)pyrazolo[1,5-a]pyridin-4-yl)cyclohexane-1-carbonitrile]
27 | 0.1 to 100 | 0.1 to 100 | N#CC1CCC(c2cccn3ncc(-c4ccc(OCCCN5CCCCC5)cc4)c23)CC1 (stereo not drawn) [Compound P-0142, 4-(3-(4-(3-(piperidin-1-yl)propoxy)phenyl)pyrazolo[1,5-a]pyridin-4-yl)cyclohexane-1-carbonitrile]
28 | 0.1 to 100 | 0.1 to 100 | Cn1cc(-c2ccc(-c3cnn4ccnc(C5=CCC(C(N)=O)CC5)c34)cc2)cn1 (stereo not drawn) [Compound P-0280, 4-(3-(4-(1-methyl-1H-pyrazol-4-yl)phenyl)pyrazolo[1,5-a]pyrazin-4-yl)cyclohex-3-ene-1-carboxamide]
29 | 0.1 to 100 | 100 to 1000 | CNC(=O)C1CCC(c2cccn3ncc(-c4ccc(-c5cnn(C(F)F)c5)cc4)c23)CC1 (stereo not drawn) [Compound P-0317, 4-(3-(4-(1-(difluoromethyl)-1H-pyrazol-4-yl)phenyl)pyrazolo[1,5-a]pyridin-4-yl)-N-methylcyclohexane-1-carboxamide]
30 | 0.1 to 100 | 100 to 1000 | N#CC1CCC(c2nccn3ncc(-c4ccc5c(cnn5C5CCCCO5)c4)c23)CC1 (stereo not drawn) [Compound P-0109, 4-(3-(1-(tetrahydro-2H-pyran-2-yl)-1H-indazol-5-yl)pyrazolo[1,5-a]pyrazin-4-yl)cyclohexane-1-carbonitrile]
